Test results published in PubChem BioAssay AID1671353.

Target: Serine/threonine-protein kinase pim-1 (Homo sapiens) (UniProt P11309)
Experiment: PIM1 kinase inhibitors, dose response, biochemical, Z'-LYTE FRET, direct format, recombinant human (AID 1671353)
Settings: Z'-LYTE FRET peptide phosphorylation

An IC50 of 1.97 µM was found for `Brc1c(Br)c(Br)c2n[nH]nc2c1Br` in this work.
